Assay [1] relates to gastric ulcers provoked by a pylorus ligature (Shay rat). In words: Protective action on the stomach: antiulcerogenic test in the Shay rat (pylorus ligature + oral 100 mg/kg acetylsalicylic acid), reduction of ulcer index. In kind it is in vivo. The note with it: for ED25 / ED50: Rattus norvegicus, po; for ED25 / Protective action on the stomach (rat), ED25: dose reducing ulcer index by 25% vs control; for ED25 / ED50 / Protective action on the stomach (rat), ED25 / Protective action on the stomach (rat), ED50: logarithmic interpolation; for ED50 / Protective action on the stomach (rat), ED50: dose reducing ulcer index by 50% vs control; for Protective action on the stomach (rat), reduction in the ulcer index: 1 hour before pylorus ligature. As to the method: The effect of the compounds according to the invention on the formation of gastric ulcers provoked by a pylorus ligature (4 hours, so-called Shay rat) and oral administration of 100 mg/kg acetylsalicylic acid and on the inhibition of gastric secretion in rats during 4 hours is shown in the following table:
(§1) The antiulcerogenic action was tested in accordance with the method using the so-called Shay rat: Rats (female, 180 to 200 g, 4 animals per cage on a high grid) which had been fasted for 24 hours were subjected to ulcer provocation by pylorus ligature (under diethyl ether anaesthesia) and oral administration of 100 mg/10 ml/kg of acetylsalicyclic acid. The substances to be tested are administered orally (10 ml/kg) 1 hour before the pylorus ligature. The wound is closed by means of Michel clamps. 4 hours thereafter, the animals are killed under ether anaesthesia by atlas dislocation, and the stomach is removed. The stomach is opened longitudinally and fixed to a cork tile after the amount of gastric juice secreted [volume, and its hydrochloric acid content (titration with sodium hydroxide solution)] has been determined, the number and size (=diameter) of ulcers present are determined with a stereomicroscope with 10-fold magnification. The product of the degree of severity (according to the following rating scale) and the number of ulcers serves as the individual ulcer index.
The reduction in the average ulcer index of each treated group compared with that of the control group (=100%) serves as a measure of the antiulcerogenic effect. The ED25 and the ED50 designate the doses which reduce the average ulcer index and the gastric secretion by 25 and 50%.

Assay [2] has as its system gastric secretion (HCl-secretion of the rat stomach). The assay is described as follows: Gastric secretion inhibition (HCl-secretion over 4 hours) in the Shay rat. The assay is classed as in vivo. The note with it: for ED25 / ED50: Rattus norvegicus, po; for ED25 / Gastric secretion (rat), ED25: dose reducing HCl secretion (sum 4 hours) by 25% vs control; for Gastric secretion (rat), inhibition in % of HCl-secretion: 4 hours. As to the method: as §1, with “index. The reduction in the average ulcer index of each treated group compared with that of the control group (=100%) serves as a measure of the antiulcerogenic effect. The ED25 and the ED50 designate the doses which reduce the average ulcer index and the gastric secretion by 25 and 50%.” for “index.”

The mark [3] stands for this setting: dose reducing HCl secretion (sum 4 hours) by 50% vs control, logarithmic interpolation.

For the compound `COc1ccnc(C[S+]([O-])c2nc3cc(C(F)(F)F)ccc3[nH]2)c1` (stereo not drawn) [Serial No. 2, 5-Trifluoromethyl-2-[(4-methoxy-2-pyridylmethyl)sulfinyl]-(1H)-benzimidazole], the ED25 was determined as 0.24 mg/kg in assay [1] and 0.35 mg/kg in assay [2] (logarithmic interpolation). Moreover, the ED50 is 0.45 mg/kg in assay [1] and 0.75 mg/kg in assay [2] (setting [3]). Also, the “Protective action on the stomach (rat), reduction in the ulcer index” value in assay [1] (dose 0.1 mg/kg p.o.) is reported as 6%; in assay [1] (dose 0.3 mg/kg p.o.) it was 29%; in assay [1] (dose 1.0 mg/kg p.o.), 88%; in assay [1] (dose 3.0 mg/kg p.o.) it was 100%. For the same compound, the “Gastric secretion (rat), inhibition in % of HCl-secretion” value was found to be 0% in assay [2] (dose 0.1 mg/kg p.o.), 18% in assay [2] (dose 0.3 mg/kg p.o.), 60% in assay [2] (dose 1.0 mg/kg p.o.) and 84% in assay [2] (dose 3.0 mg/kg p.o.).

With “4-Trifluoromethyl-2-[(4-methoxy-2-pyridylmethyl)sulfinyl]-(1H)-benzimidazole [Example 1]”, the “Protective action on the stomach (rat), reduction in the ulcer index” value in assay [1] (dose 0.1 mg/kg p.o.) is given as “+1%”; in assay [1] (dose 0.3 mg/kg p.o.) it was 12%; in assay [1] (dose 1.0 mg/kg p.o.) it was 27%; in assay [1] (dose 3.0 mg/kg p.o.), 58%. The “Protective action on the stomach (rat), ED25” value in assay [1] is 0.9 mg/kg, p.o. In addition, in assay [1], the “Protective action on the stomach (rat), ED50” value was 2.3 mg/kg, p.o. Also, the “Gastric secretion (rat), inhibition in % of HCl-secretion” value in assay [2] (dose 0.1 mg/kg p.o.) was found to be 5%; in assay [2] (dose 0.3 mg/kg p.o.), 9%; in assay [2] (dose 1.0 mg/kg p.o.), 15%; in assay [2] (dose 3.0 mg/kg p.o.) it was 22%. For the same compound, in assay [2] (logarithmic interpolation), the “Gastric secretion (rat), ED25” value was ≥ 3.0 mg/kg, p.o.

For `COc1c(C)cnc(C[S+]([O-])c2nc3cc(C(F)(F)F)ccc3[nH]2)c1C` (stereo not drawn) [Serial No. 4, 5-Trifluoromethyl-2-[(4-methoxy-3,5-dimethyl-2-pyridylmethyl)sulfinyl]-(1H)-benzimidazole], the ED25 amounted to 0.24 mg/kg in assay [1] and 0.48 mg/kg in assay [2] (logarithmic interpolation). Besides, the values for the ED50 in assay [1] and in assay [2] (setting [3]) were 0.55 mg/kg and 1 mg/kg, respectively. Also, the “Protective action on the stomach (rat), reduction in the ulcer index” value in assay [1] (dose 0.1 mg/kg p.o.) is 1%; in assay [1] (dose 0.3 mg/kg p.o.) it was 30%; in assay [1] (dose 1.0 mg/kg p.o.), 69%; in assay [1] (dose 3.0 mg/kg p.o.) it was 89%. In addition, the “Gastric secretion (rat), inhibition in % of HCl-secretion” value in assay [2] (dose 0.1 mg/kg p.o.) is “+5%”; in assay [2] (dose 0.3 mg/kg p.o.) it was 10%; in assay [2] (dose 1.0 mg/kg p.o.) it was 50%; in assay [2] (dose 3.0 mg/kg p.o.), 75%.

In the case of `COc1ccnc(CSc2nc3cc(C(F)(F)F)ccc3[nH]2)c1C` [Serial No. 7, 5-Trifluoromethyl-2-[(4-methoxy-3-methyl-2-pyridylmethyl)thio]-(1H)-benzimidazole], the values for the ED25 in assay [1] and in assay [2] (logarithmic interpolation) were at most 0.3 mg/kg and 0.3 mg/kg, respectively. Moreover, the ED50 in assay [1] and in assay [2] (setting [3]) was 0.5 mg/kg in each case. Moreover, the “Protective action on the stomach (rat), reduction in the ulcer index” value was determined as 30% in assay [1] (dose 0.3 mg/kg p.o.) and 94% in assay [1] (dose 1.0 mg/kg p.o.). Also, the “Gastric secretion (rat), inhibition in % of HCl-secretion” value in assay [2] (dose 0.3 mg/kg p.o.) is 26%; in assay [2] (dose 1.0 mg/kg p.o.) it was 85%.

Turning to `COc1ccnc(CSc2nc3cc(C(F)(F)F)ccc3[nH]2)c1` [Serial No. 6, 5-Trifluoromethyl-2-[(4-methoxy-2-pyridylmethyl)thio]-(1H)-benzimidazole], the ED25 in assay [1] is about 1 mg/kg; in assay [2] (logarithmic interpolation) it was 1.2 mg/kg. Moreover, the median effective dose (ED50) in assay [1] is 1.4 mg/kg; in assay [2] (setting [3]), 2 mg/kg. Moreover, the “Protective action on the stomach (rat), reduction in the ulcer index” value in assay [1] (dose 1.0 mg/kg p.o.) turned out to be 27%; in assay [1] (dose 3.0 mg/kg p.o.), 97%. Moreover, the entries for the “Gastric secretion (rat), inhibition in % of HCl-secretion” value in assay [2] (dose 1.0 mg/kg p.o.) and in assay [2] (dose 3.0 mg/kg p.o.) were 15% and 70%, respectively.

For the compound `COc1ccnc(C[S+]([O-])c2nc3cc(C(F)(F)F)ccc3[nH]2)c1C` (stereo not drawn) [Serial No. 3, 5-Trifluoromethyl-2-[(4-methoxy-3-methyl-2-pyridylmethyl)sulfinyl]-(1H)--benzimidazole], the ED25 in assay [1] is 0.3 mg/kg; in assay [2] (logarithmic interpolation), under 0.3 mg/kg. Besides, the ED50 in assay [1] amounted to 0.45 mg/kg; in assay [2] (setting [3]), 0.4 mg/kg. Moreover, the “Protective action on the stomach (rat), reduction in the ulcer index” value in assay [1] (dose 0.3 mg/kg p.o.) amounted to 25%; in assay [1] (dose 1.0 mg/kg p.o.), 98%; in assay [1] (dose 10.0 mg/kg p.o.) it was 100%. Moreover, the “Gastric secretion (rat), inhibition in % of HCl-secretion” value in assay [2] (dose 0.3 mg/kg p.o.) came out at 40%; in assay [2] (dose 1.0 mg/kg p.o.), 88%; in assay [2] (dose 10.0 mg/kg p.o.), 92%.

Turning to “5-Trifluoromethyl-2-[(4-methoxy-3,5-dimethyl-2-pyridylmethyl)thio]-(1H)-benzimidazole [Example 8]”, the “Protective action on the stomach (rat), reduction in the ulcer index” value in assay [1] (dose 1.0 mg/kg p.o.) was 50%; in assay [1] (dose 3.0 mg/kg p.o.), 63%. Besides, the “Protective action on the stomach (rat), ED25” value in assay [1] is < 1.0 mg/kg, p.o. In assay [1], the “Protective action on the stomach (rat), ED50” value was 1.0 mg/kg, p.o. Besides, the “Gastric secretion (rat), inhibition in % of HCl-secretion” value was determined as 12% in assay [2] (dose 1.0 mg/kg p.o.) and 50% in assay [2] (dose 3.0 mg/kg p.o.). The “Gastric secretion (rat), ED25” value in assay [2] (logarithmic interpolation) was 1.5 mg/kg, p.o. Also, the “Gastric secretion (rat), ED50” value in assay [2] (setting [3]) is 3.0 mg/kg, p.o.

Source of the values: patent publication US4472409A, “2-Pyridylmethyl thio(sulfinyl)benzimidazoles with gastric acid secretion inhibiting effects” (Byk Gulden Lomberg Chemische Fabrik Gesellschaft mit …, priority 1981, dated 1984).
